Measured values from patent US8148392B2, “2-indolyl imidazo [4,5-d] phenanthroline derivatives and their use in the treatment of cancer” (Lorus Therapeutics Inc., priority 2005, dated 2012).

Experiments:
Format in all cases: cell-based, human
MTF-1 = MTF-1 DNA-binding activity, EMSA, HT-29 nuclear extract
Experimental: To verify the change in MTF-1 activity at earlier time of incubation, prior to the significant decrease in MTF-1 gene expression, MTF-1 nuclear translocation and DNA-binding activity was determined in nuclear extract of HT-29 cells treated with compound 3 for 4 hr, by electrophoretic mobility shift assay (EMSA) (FIG. 40B) as follows. HT-29 cells were treated with DMSO, 35 μM ZnCl2 (positive control) and 1 μM compound 3 for 4 hr. Nuclear protein was extracted and incubated with biotin-labeled MTF-1 binding oligonucleotide probes. The retarded mobility of labeled probe upon MTF-1 binding was observed as a band shift (FIG. 40B). […] In zinc-treated groups, 2 additional shift bands (open arrows) were observed (lane 3), indicating the increase in zinc-dependent MTF-1 activity. […] Excess unlabeled probes were added in lane 2, 4 and 6 to compete the labeled probes binding with MTF-1 in the nuclear extract, showing the specificity of MTF-1-binding shift bands in lane 1, 3 and 5, respectively.
HT-29 cells were treated with 35 μM ZnCl2 for 4 hr and the nuclear extract from zinc-treated cells (zinc-activated MTF-1) was treated with compound 3 in vitro and DNA-binding activity of MTF-1 to MRE sequence was assessed by electrophoretic mobility shift assay (EMSA) (Panomics, Redwood City, Calif.).
To examine inactivation of MTF-1 by compound 3 in the cells, HT-29 cells were treated with compound 3 for 1 to 4 hr and DNA-binding activity of MTF-1 in the nuclear extract was assessed by EMSA.

K-562 leukemia cell line = experiment: NCI DTP in vitro screen, K-562; conditions: K-562, in words
Experimental: For example, the following methodology, which is currently employed by the NCI, can be used to assess the GI50 of a candidate compound of Formula I in the selected cancer cell lines. Briefly, cell suspensions are diluted (5000-40,000 cells per well) and 100 μL of the diluted cell suspension is added into 96-well microtiter plates. Inoculates are allowed a preincubation period of 24 h at 37° C. for stabilization. Dilutions at twice the intended test concentration of the candidate compound are added at time zero in 100 μL aliquots to the microtiter plate wells. Test compounds are generally evaluated at five 10-fold dilutions. In routine testing, the highest well concentration is usually 10E-4 M, but this may be adjusted depending on the compound being tested. […] The cells are then assayed by using the sulforhodamine B assay (see, for example, Skehan, P., et al. (1990) JNCI, J. Natl. Cancer Inst. 82, 1107-1112; and Chen, S. F., et al. (1990) Proc. Am. Assoc. Cancer Res. 31, A2644) employing a plate reader which can be used to read the optical densities.
Compounds 2 and 3 were evaluated for their antiproliferative effects in a panel of 60 human cancer cell lines as part of the in vitro anticancer screening services provided by the DTP (Developmental Therapeutics Program) of the US National Cancer Institute (NCI).

KLF4 = KLF4 binding to Cyclin D1 promoter, ChIP, HT-29; conditions: HT-29, ChIP
Experimental: Based on overlapping transcription factor binding sites on Cyclin D1 gene promoter region (FIG. 33A), increased binding of a negative regulator KLF4 may replace the binding of a positive regulator Sp1. In vivo KLF4 and Sp1 binding to Cyclin D1 promoter was shown by chromatin immuno-precipitation assay (ChIP) (FIG. 33B).
Chromatin immunoprecipitation (ChIP) was performed as follows. Cell lysates from HT-29 cells (5.5×10^5 cells in three 15 cm-culture plates in each experimental group) were prepared at the end of the indicated experiments, and ChIP assays were performed using anti-KLF4 and anti-Sp1 antibodies (Santa Cruz Biotechnology Inc.) and ChIP-ITTM kit (Active Motif, Carlsbad, Calif.) by following the manufacturer's instruction. The primers encompassing-231 to -92 region of Cyclin D1 promoter; 5′ primer (5′-CGGACTACAGGGGCAA-3′) [SEQ ID NO:1] and 3′ primer (5′-GCTCCAGGACTTTGCA-3′) [SEQ ID NO:2] were synthesized at Invitrogen.

## Cc1[nH]c2ccccc2c1-c1nc2c3cccnc3c3ncccc3c2[nH]1 [Compound 3]
MTF-1; HT-29 cells treated for 1 to 4 hr
  DNA-binding activity of MTF-1: Significant decrease in MTF-1 activity
MTF-1; HT-29 treated with 1 μM for 4 hr, versus ZnCl2 positive control
  zinc-dependent MTF-1 DNA-binding activity: zinc-dependent MTF-1 activity was not increased
MTF-1; nuclear extract of zinc-treated HT-29 cells treated in vitro
  DNA-binding activity of zinc-activated MTF-1: Inactivation of MTF-1 DNA-binding
K-562 leukemia cell line
  GI50: nanomolar range
KLF4
  KLF4 binding to Cyclin D1 promoter: Increased KLF4
